We go through 1 compound from patent publication US20200399250A1, “Pyrimidine Derivatives as Tropomyosin Receptor Kinase A (TRKA) Inhibitors” (BIOMED X GMBH, priority 2017, published 2020).

Molecules are shown by their SMILES. “Also recorded” adds a separate entry of the source.

The target of assay [1] is T1, AurA (Homo sapiens, UniProt O14965).
T1 sequence (O14965 1-403): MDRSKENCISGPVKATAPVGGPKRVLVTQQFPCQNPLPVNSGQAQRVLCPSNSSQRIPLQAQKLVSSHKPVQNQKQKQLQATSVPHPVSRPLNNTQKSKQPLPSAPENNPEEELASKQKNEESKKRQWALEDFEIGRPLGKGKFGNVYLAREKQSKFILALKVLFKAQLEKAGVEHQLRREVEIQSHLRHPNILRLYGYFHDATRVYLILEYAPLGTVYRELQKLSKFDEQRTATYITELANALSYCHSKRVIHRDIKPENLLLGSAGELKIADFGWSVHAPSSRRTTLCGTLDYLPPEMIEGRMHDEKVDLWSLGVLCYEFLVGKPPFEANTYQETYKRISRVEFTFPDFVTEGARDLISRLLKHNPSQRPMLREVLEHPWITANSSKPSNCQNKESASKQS
As to the kind of experiment: KINOMEscan primary screen against AurA. The assay is classed as binding. The conditions noted are these: % of control. As to the method: (§1) Compounds were initially tested in a primary screen against TrkA (at 10 and 100 nM) and AurA (at 100 nM and 1 μM) using the KINOMEscan technology from DiscoverX Corporation, Fremont, Calif., USA (https://www.discoverx.com/services/drug-discovery-development-services/kinase-profiling/kinomescan).

Assay [2] addresses TrkA. The assay can be described thus: KdELECT Kd measurement (KINOMEscan), TrkA. Format: binding. The conditions noted are these: TrkA pKd versus AurA pKd. As to the method: (§2) Kd measurements were done via the KdELECT product service from DiscoverX Corporation (Freemont, Calif., USA) which also employs the KINOMEscan technology. Here, inhibitor binding constants (Kd values) are calculated from duplicate 11-point dose-response curves.

The target of assay [3] is T2, TrkA (Homo sapiens, UniProt P04629). As to the kind of experiment: KdELECT Kd measurement (KINOMEscan), TrkA. The assay is classed as binding. As to the method: as §2
Assay [4] has as its target T2, TrkA. The assay can be described thus: KINOMEscan primary screen against TrkA. Format: binding. As to conditions: % of control. As to the method: as §1
Results were reported as % of control (% Ctrl.=(test compound signal−positive control signal)/(DMSO signal−positive control signal). KINOMEscan is an active site-directed competition binding assay that quantitatively measures the ability of a compound to compete with an immobilized, active-site directed ligand.

In assay [5] the target is full-length human TrkA receptor (Homo sapiens, UniProt P04629). The assay can be described thus: PathHunter cellular functional assay, antagonism of β-NGF. The assay is classed as cell-based. As to conditions: antagonism at EC80 (0.03 μg/ml) of β-NGF; read-out: Cellular assay [RC50]. From the text:
The two compounds a1 and b7 were additionally tested in a functional assay using the PathHunter® technology (DiscoverX Corporation, Freemont, Calif., USA; https://www.discoverx.com/technologies-platforms/enzyme-fragment-complementation-technoloqy/cell-based-efc-assays/protein-protein-interactions/kinases-cell-based-(rtk-ctk)). In this assay, the full-length human TrkA receptor (i.e. including ligand-binding and kinase domains) is expressed as a C-terminal (intracellular) fusion with a small peptide epitope, called Prolink™ (PK). Furthermore, a SH2 domain containing protein (i.e. Shc1) is co-expressed with a larger Enzyme Acceptor (EA) fragment. Activation of the TrkA receptor by adding the agonist ligand (β-NGF), leads to the auto-phosphorylation of the kinase and subsequent binding of the Shc1-EA protein. That recruitment results in an active B-galactosidase enzyme that is detected by addition of a chemiluminescent substrate.
Compounds were tested for antagonism using EC80 concentration (i.e. 0.03 μg/ml) of β-NGF. Data was normalized to the maximal and minimal response observed in the presence of EC80 agonist ligand (3-NGF) and vehicle (DMSO, final concentration 1%), respectively.

Assay [6] concerns panel of 97 kinases. The assay can be described thus: Selectivity profiling, scanEDGE kinase panel (KINOMEscan). The conditions noted are these: 100 nM, cut-off <35% ctrl. Format: binding. As to the method:
Selectivity profiling was done over a panel of 97 kinases at 100 nM concentration (scanEDGE assay panel from Discover X, which also uses the KINOMEscan technology, whereat KIT(D816V) and KIT (V559D, T6701) were replaced by TrkB and TrkC). […] The employed profiling panel consisted of the following kinases: ABL1(T3151)-phosphorylated, ABL1-nonphosphorylated, ABL1-phosphorylated, ACVR1B, ADCK3, AKT1, AKT2, ALK, AURKA, AURKB, AXL, BMPR2, BRAF, BRAF (V600E), BTK, CDK11, CDK2, CDK3, CDK7, CDK9, CHEK1, CSF1R, CSNK1D, CSNK1G2, DCAMKL1, DYRK1B, EGFR, EGFR (L858R), EPHA2, ERBB2, ERBB4, ERK1, FAK, FGFR2, FGFR3, FLT3, GSK3B, IGF1R, IKK-alpha, IKK-beta, INSR, JAK2 (JH1domain-catalytic), JAK3 (JH1domain-catalytic), JNK1, JNK2, JNK3, KIT, LKB1, MAP3K4, MAPKAPK2, MARK3, MEK1, MEK2, MET, MKNK1, MKNK2, MLK1, p38-alpha, p38-beta, PAK1, PAK2, PAK4, PCTK1, PDGFRA, PDGFRB, PDPK1, PIK3C2B, PIK3CA, PIK3CG, PIM1, PIM2, PIM3, PKAC-alpha, PLK1, PLK3, PLK4, PRKCE, RAF1, RET, RIOK2, ROCK2, RSK2 (Kin. Dom. 1-N-terminal), SNARK, SRC, SRPK3, TGFBR1, TIE2, TRKA, TRKB, TRKC, TSSK1B, TYK2 (JH1domain-catalytic), ULK2, VEGFR2, YANK3, ZAP70

Assay [7] addresses T1, AurA. As to the kind of experiment: KdELECT Kd measurement (KINOMEscan), AurA. The assay is classed as binding. As to the method: as §2
Setting [8] is: duplicate 11-point dose-response curves.

T2 sequence (P04629 33-796): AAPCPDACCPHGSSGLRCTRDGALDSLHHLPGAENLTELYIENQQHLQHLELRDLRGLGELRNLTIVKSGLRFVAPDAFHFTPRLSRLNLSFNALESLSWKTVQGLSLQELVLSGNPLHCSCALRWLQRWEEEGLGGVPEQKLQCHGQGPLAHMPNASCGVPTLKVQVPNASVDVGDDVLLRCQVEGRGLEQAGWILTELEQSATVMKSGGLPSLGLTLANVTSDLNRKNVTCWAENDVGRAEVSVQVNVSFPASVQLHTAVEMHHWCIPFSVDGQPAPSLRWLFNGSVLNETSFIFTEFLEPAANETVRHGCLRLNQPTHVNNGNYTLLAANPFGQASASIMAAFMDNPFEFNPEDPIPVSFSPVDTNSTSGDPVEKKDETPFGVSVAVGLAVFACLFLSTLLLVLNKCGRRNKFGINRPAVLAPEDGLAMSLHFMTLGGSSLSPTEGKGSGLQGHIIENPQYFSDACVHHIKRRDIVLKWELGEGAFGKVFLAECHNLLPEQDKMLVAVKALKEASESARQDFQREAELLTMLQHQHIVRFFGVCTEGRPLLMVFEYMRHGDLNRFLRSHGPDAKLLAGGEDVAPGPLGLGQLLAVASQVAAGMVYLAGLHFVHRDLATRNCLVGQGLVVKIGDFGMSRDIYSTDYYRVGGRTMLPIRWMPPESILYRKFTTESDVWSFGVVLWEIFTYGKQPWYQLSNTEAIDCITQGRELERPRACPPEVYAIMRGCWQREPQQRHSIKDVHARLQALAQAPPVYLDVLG
full-length human TrkA receptor, sequence (P04629 33-796): as above
full-length human TrkA receptor, sequence (P01138 122-241 partner): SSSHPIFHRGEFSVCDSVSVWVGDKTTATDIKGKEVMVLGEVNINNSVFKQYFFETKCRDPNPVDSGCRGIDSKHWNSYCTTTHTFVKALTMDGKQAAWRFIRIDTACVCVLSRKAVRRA

Broadly, the Kd is a measure of binding affinity in units of concentration. `Cc1cc(Nc2cc(N3CCN(C)CC3)nc(SCc3ccc(F)cc3)n2)n[nH]1` [b7, 2-{[(4-fluorophenyl)methyl]sulfanyl}-N-(5-methyl-1H-pyrazol-3-yl)-6-(4-methylpiperazin-1-yl)pyrimidin-4-amine]: the “% Ctrl. AurA @100 nM” value in assay [1] (100 nM compound) is reported as 15 % Ctrl. In assay [1] (1 μM compound), the “% Ctrl. AurA @1 μM” value stood at 0.85 % Ctrl. The ΔpKd in assay [2] came out at 1.4. For the same compound, the “TrkA [pKd]” value in assay [3] is 9.0. The values for the Kd in assay [3] (setting [8]) and in assay [7] (setting [8]) were 1.1 nM and 28 nM, respectively. Further, in assay [4] (10 nM compound), the “% Ctrl. TrkA @10 nM” value is listed as 9.3 % Ctrl. In assay [4] (100 nM compound), the “% Ctrl. TrkA @100 nM” value is 0.5 % Ctrl. The IC50 in assay [5] amounted to 23 nM. The “# Hits” value in assay [6] (N = 92 non-mutant kinases) is given as 18. Further, the “List of inhibited kinases” value in assay [6] is listed as “TrkA, TrkB, TrkC, ABL1, ALK,; also recorded: AurA, FLT3, FMS, JAK2, JAK3,; also recorded: KDR, KIT, NuaK2, PDGFRb, PLK4,; also recorded: RET, SRC, TYK2”. Besides, the “Selectivity Score” value in assay [6] (inhibited kinases/tested kinases) is given as 0.196. Also, in assay [7], the “AurA [pKd]” value is on record as 7.6.
